In patent US20130035329A1, “THERAPEUTICALLY ACTIVE COMPOSITIONS AND THEIR METHODS OF USE” (priority 2009, published 2013) one finds 6-month survival and IC50 data, which are given here for 9 compounds.

For one assay, the system named is recurrent glioma. Conditions: recurrent glioma patients; bevacizumab used with irinotecan; cited from earlier work.
Another assay deals with IDH1 R132H (Homo sapiens, UniProt O75874, R132H). The assay can be described thus: High Throughput Screening (HTS) for IDH1 R132H inhibitors (resazurin/NADPH fluorescence assay). It counts as biochemical. Conditions: IDH1m; assay similar to Example 1; class symbols. As to the method: A compound described herein may be an inhibitor of IDH1m. […] B refers to an inhibitor of IDH1m with an IC50 between 1 μM and 50 μM. C refers to an inhibitor of IDH1m with an IC50 greater than 50 μM. D refers to a compound wherein an IC50 is not available.
IDH1 R132H, sequence (O75874 whole entry R132H): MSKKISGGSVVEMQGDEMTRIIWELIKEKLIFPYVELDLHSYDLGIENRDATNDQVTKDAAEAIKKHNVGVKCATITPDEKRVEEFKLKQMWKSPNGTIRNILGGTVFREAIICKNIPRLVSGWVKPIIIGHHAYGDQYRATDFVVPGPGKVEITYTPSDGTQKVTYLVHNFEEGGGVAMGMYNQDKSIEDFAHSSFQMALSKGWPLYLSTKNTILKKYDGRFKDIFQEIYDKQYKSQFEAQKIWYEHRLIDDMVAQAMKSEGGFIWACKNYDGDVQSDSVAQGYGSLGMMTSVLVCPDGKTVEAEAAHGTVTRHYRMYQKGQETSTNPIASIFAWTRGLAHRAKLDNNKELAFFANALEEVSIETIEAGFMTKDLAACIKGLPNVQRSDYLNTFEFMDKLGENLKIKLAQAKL
Assays were conducted in a volume of 76 μl assay buffer (150 mM NaCl, 10 mM MgCl2, 20 mM Tris pH 7.5, 0.03% bovine serum albumin) as follows in a standard 384-well plate: To 25 ul of substrate mix (8 uM NADPH, 2 mM aKG), 1 μl of test compound was added in DMSO. The plate was centrifuged briefly, and then 25 μl of enzyme mix was added (0.2 μg/ml ICDH1 R132H) followed by a brief centrifugation and shake at 100 RPM. The reaction was incubated for 50 minutes at room temperature, then 25 μl of detection mix (30 μM resazurin, […]) was added and the mixture further incubated for 5 minutes at room temperature. The conversion of resazurin to resorufine was detected by fluorescent spectroscopy at Ex544 Em590 c/o 590.
A general note: Alamar Blue is a resazurin reagent that responds to reducing activity.

Take “bevacizumab: "The anti-angiogenic agent bevacizumab"; listed among "exemplary antibodies"”: the 6-month survival with recurrent glioma is given as 46%.
Compound `CCCCc1ccc(NS(=O)(=O)c2ccc(C)c(C(=O)N3CCN(c4ccc(OC)cc4O)CC3)c2)cc1` came in with a concentration for half-maximal inhibition (IC50) at IDH1 R132H of 1 to 50 µM.
For the compound `CCCCc1ccc(NS(=O)(=O)c2ccc(C)c(C(=O)N3CCCN(c4ccccc4C)CC3)c2)cc1`, the concentration for half-maximal inhibition (IC50) at IDH1 R132H lay in the range of 1 to 50 µM.
On the same count and under the same terms, to `CCCCc1ccc(NS(=O)(=O)c2ccc(N3CCCC3)c(C(=O)N3CCN(c4ccccc4OC)CC3)c2)cc1` belongs 1 to 50 µM.
At IDH1 R132H, `COc1ccccc1N1CCN(C(=O)c2cccc(S(=O)(=O)Nc3ccccc3F)c2)CC1` had a half-maximal inhibitory concentration (IC50) greater than 50 µM.
On the same count and under the same terms, the value for `CCCCOc1ccc(NS(=O)(=O)c2ccc(C)c(C(=O)N3CCN(c4ccccc4OC)CC3)c2)c(C)c1C` was 1 to 50 µM; that for `C#CCc1ccc(S(=O)(=O)Nc2ccc(CCCC)cc2)cc1C(=O)N1CCN(c2ccccc2OC)CC1` was 1 to 50 µM.
Same read-out and setting: to `CCCCc1ccc(NS(=O)(=O)c2ccc(C)c(C(=O)N3CCN(c4ccccc4OCCc4ccccc4)CC3)c2)cc1` belongs 1 to 50 µM; to `O=C(c1cccc(S(=O)(=O)Nc2ccc(Cl)cc2)c1)N1CCN(c2ccccc2)CC1`, greater than 50 µM.

The IC50 is the point on the concentration scale where inhibition reaches its midpoint. A low value points to inhibition by little substance.
